Assay [1] in a line: viability of PTEN-deleted HCT116 cells – cell-based, HCT116 PTEN knockout, dose response (AID 1047).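 Note: HCT116 colon tumor cells with PTEN knocked out; cells exposed to compound for 60 hours before readout; potency for loss of cell viability measured by luminescence.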 It is filed as functional.
The nature of assay [2]: viability of HCT116 lacking mutant beta-catenin – cell-based, human colon tumor, dose response (AID 1045).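 Note: HCT116 colon tumor cells with beta catenin knocked out; cells exposed to compound for 60 hours.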 The assay is classed as functional.
For the next assay, the target named is Fatty acid synthase (Homo sapiens, UniProt P49327). As to the kind of experiment: inhibition of human FAS-TE enzyme activity – biochemical, kinetic fluorescence intensity, dose response (AID 624326).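 Note: rate of fluorescence rise from hydrolysis of a fluorogenic O-methyl fluorescein ester substrate.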 It is filed as functional.
Sequence of Fatty acid synthase (P49327 whole entry): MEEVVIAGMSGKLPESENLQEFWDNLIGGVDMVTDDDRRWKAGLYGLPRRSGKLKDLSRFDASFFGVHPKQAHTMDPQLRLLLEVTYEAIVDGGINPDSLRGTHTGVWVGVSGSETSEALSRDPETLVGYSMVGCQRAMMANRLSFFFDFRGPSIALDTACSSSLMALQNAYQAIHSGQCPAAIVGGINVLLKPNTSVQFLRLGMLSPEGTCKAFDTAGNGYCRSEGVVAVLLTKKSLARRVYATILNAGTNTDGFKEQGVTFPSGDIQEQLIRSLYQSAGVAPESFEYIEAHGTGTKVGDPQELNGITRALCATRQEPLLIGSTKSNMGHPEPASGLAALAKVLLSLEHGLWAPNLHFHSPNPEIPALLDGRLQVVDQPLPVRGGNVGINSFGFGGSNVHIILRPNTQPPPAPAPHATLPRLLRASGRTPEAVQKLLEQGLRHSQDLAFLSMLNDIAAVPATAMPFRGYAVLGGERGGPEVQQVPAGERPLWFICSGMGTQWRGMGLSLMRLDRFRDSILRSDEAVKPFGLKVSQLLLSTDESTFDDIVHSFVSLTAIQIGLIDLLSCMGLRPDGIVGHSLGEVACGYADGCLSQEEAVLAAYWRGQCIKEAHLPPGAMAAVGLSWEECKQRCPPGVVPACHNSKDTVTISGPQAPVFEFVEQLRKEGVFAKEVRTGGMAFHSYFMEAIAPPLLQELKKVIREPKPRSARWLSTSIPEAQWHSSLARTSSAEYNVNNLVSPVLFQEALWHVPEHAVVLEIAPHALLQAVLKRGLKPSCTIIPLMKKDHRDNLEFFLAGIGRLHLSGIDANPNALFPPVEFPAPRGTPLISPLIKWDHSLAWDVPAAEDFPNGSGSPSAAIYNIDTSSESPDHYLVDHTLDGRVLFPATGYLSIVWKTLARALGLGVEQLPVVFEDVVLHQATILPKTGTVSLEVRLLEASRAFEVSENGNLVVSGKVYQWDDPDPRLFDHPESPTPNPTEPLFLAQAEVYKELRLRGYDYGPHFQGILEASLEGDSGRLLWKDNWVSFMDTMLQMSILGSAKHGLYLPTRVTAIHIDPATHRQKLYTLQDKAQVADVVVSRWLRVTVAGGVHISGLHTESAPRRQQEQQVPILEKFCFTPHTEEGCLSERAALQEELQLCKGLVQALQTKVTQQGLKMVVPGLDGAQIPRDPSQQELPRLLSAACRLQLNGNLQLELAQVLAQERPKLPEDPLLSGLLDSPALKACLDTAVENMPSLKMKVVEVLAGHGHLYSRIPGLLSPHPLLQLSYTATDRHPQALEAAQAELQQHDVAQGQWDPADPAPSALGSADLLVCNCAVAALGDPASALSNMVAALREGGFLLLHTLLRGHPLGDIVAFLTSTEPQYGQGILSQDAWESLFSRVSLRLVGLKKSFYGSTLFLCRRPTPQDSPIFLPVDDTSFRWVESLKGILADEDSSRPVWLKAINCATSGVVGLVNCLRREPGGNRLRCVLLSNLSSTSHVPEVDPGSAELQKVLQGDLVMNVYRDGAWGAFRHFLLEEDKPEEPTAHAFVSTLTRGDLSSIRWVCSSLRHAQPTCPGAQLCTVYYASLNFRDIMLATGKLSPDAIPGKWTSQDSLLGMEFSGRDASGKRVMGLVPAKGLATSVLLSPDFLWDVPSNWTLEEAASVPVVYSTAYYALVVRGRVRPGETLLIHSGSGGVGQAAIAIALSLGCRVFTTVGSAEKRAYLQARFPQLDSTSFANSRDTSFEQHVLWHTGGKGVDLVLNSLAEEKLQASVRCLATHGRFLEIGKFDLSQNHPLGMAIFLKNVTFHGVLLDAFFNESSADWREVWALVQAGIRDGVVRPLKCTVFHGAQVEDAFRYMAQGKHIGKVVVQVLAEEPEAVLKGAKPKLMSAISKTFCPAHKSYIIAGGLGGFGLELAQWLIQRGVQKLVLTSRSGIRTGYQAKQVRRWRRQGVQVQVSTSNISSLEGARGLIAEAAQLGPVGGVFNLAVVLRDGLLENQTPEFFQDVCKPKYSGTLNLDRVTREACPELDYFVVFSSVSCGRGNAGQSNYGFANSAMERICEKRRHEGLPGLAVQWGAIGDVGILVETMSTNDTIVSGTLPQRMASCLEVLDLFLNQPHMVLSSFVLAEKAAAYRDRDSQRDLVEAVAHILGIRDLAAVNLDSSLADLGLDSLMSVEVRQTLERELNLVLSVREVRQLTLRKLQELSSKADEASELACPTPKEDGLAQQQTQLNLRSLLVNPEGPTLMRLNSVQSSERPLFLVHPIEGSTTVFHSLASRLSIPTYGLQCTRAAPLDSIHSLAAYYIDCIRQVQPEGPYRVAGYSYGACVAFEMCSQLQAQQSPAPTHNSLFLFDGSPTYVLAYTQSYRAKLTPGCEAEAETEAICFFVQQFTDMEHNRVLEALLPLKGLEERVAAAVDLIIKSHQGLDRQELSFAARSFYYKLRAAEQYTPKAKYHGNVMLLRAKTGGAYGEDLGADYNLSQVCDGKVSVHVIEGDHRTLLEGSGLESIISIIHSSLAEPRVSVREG
Another assay has as its target T1, Aminopeptidase N (Plasmodium falciparum FcB1/Columbia, UniProt O96935).
T1 sequence (O96935 whole entry): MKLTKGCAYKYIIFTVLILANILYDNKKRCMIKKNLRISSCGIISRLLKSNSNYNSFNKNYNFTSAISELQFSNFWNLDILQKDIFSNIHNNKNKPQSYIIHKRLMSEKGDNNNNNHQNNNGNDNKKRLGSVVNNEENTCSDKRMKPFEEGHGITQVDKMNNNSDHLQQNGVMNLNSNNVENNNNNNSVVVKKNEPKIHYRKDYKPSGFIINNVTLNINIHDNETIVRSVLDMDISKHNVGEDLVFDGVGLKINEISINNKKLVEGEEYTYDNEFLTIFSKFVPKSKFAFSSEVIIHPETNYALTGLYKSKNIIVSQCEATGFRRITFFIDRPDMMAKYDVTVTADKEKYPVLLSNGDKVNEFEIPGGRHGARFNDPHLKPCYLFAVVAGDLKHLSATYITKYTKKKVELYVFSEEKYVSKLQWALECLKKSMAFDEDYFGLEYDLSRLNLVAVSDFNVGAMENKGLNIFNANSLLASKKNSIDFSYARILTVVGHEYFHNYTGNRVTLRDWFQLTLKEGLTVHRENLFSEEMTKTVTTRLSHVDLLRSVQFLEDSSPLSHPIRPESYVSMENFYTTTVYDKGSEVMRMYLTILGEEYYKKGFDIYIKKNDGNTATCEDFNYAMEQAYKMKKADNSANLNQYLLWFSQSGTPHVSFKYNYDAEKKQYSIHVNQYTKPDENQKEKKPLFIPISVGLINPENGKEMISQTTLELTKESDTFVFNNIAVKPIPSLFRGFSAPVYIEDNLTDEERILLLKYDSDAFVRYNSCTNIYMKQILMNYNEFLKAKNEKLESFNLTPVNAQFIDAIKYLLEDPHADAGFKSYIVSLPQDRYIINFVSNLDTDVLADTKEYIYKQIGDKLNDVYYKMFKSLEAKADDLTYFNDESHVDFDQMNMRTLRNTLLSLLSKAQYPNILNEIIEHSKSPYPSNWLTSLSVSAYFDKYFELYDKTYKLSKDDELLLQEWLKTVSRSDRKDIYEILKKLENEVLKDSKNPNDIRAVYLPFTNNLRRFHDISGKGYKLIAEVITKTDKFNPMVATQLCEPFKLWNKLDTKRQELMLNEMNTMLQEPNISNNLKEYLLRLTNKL
Kind of assay: malaria alanyl aminopeptidase activity blockers – biochemical, fluorogenic H-Leu-NHMec substrate, 1536-well (AID 1445). Details: species or system Plasmodium falciparum 3D7, 3D7.

For assay [3], the target named is Glyceraldehyde-3-phosphate dehydrogenase (Homo sapiens, UniProt P04406).
Sequence of Glyceraldehyde-3-phosphate dehydrogenase (P04406 whole entry): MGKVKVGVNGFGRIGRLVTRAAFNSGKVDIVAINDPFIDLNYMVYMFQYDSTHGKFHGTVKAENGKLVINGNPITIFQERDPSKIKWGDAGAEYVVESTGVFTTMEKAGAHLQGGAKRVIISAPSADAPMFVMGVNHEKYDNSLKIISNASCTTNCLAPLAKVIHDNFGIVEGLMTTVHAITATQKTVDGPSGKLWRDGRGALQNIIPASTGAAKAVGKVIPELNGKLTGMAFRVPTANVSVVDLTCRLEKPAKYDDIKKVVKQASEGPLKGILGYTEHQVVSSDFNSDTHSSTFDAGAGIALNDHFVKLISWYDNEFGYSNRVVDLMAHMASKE
For assay [4], the target named is T2, Alkaline phosphatase, tissue-nonspecific isozyme (Homo sapiens, UniProt P05186).
T2 sequence (P05186 whole entry): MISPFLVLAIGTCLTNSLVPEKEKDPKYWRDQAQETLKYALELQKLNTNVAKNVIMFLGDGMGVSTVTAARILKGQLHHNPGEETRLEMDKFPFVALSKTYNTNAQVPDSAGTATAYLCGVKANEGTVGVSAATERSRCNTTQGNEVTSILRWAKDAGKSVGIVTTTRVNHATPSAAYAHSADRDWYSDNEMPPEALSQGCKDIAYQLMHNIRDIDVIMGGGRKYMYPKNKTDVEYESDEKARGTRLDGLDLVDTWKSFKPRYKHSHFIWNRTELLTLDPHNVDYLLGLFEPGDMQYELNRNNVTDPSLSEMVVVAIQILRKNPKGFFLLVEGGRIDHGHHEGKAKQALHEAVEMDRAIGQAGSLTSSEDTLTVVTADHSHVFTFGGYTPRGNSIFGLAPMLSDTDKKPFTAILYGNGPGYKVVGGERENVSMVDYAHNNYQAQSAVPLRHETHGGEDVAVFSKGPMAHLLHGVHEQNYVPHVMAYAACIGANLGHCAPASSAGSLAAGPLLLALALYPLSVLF
Kind of assay: potency against alkaline phosphatase TNAP – biochemical, luminescent, dose response, SAR follow-up (AID 1056).

The target in assay [5] is Heat shock protein HSP 90-alpha (Homo sapiens, UniProt P07900). The assay is classed as functional, organism-based.
The target in assay [6] is T3, Histone-lysine N-methyltransferase NSD2 (Homo sapiens, UniProt O96028).
T3 sequence (O96028 whole entry): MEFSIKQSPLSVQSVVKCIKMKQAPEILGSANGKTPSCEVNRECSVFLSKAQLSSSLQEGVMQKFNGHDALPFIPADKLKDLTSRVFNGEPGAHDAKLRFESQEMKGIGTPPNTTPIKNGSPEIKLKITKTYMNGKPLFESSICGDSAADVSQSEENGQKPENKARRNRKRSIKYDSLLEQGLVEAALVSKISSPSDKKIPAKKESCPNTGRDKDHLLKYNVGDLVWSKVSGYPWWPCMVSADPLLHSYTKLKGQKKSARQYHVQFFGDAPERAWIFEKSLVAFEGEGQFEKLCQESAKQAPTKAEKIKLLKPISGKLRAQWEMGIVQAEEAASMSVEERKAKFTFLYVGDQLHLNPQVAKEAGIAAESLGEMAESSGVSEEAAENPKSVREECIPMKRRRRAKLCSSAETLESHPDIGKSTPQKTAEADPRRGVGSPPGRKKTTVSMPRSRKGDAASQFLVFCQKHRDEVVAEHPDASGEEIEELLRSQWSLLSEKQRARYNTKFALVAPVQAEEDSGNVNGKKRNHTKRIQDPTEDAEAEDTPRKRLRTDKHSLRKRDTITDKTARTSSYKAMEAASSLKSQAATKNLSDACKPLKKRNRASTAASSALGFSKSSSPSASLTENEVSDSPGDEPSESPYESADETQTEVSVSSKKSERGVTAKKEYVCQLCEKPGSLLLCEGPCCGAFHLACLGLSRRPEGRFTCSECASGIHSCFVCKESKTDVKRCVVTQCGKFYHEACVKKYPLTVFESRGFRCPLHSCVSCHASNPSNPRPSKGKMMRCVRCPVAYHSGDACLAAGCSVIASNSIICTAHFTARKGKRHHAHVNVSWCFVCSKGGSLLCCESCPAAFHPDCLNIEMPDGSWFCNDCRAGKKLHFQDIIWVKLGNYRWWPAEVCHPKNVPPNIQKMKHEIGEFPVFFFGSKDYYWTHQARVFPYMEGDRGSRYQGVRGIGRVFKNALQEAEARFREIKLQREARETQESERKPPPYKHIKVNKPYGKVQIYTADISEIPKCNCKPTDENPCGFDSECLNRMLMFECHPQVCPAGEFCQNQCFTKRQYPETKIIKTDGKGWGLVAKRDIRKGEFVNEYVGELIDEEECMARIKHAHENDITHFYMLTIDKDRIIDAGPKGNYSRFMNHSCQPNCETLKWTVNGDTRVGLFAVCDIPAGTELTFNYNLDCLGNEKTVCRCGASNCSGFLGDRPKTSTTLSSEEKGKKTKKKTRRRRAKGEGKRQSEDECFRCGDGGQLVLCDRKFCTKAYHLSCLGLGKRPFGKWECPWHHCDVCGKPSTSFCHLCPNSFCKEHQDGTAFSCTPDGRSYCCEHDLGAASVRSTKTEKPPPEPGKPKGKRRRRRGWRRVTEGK
It is filed as biochemical.

For assay [7], the target named is T4, Heat shock factor protein 1 (Mus musculus, UniProt P38532).
T4 sequence (P38532 whole entry): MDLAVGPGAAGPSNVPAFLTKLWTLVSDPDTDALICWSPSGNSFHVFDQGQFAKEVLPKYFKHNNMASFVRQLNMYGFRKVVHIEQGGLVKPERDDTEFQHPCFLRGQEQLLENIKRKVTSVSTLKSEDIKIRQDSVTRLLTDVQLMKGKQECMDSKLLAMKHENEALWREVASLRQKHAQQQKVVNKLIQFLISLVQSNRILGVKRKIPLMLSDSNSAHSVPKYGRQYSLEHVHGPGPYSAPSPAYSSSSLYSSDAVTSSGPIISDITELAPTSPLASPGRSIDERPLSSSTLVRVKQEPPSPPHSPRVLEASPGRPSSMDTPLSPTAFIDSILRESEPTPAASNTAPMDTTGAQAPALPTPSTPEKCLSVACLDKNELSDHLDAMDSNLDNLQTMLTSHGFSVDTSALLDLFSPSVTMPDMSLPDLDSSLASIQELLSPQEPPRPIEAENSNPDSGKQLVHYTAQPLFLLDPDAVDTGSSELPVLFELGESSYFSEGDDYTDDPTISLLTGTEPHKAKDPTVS
Kind of assay: decrease of HSF1-responsive luciferase luminescence – cell-based, NIH3T3, dose retest, confirmation (AID 2382).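 Note: NIH3T3 fibroblasts with HSF1-driven luciferase reporter stressed by proteasome inhibitor MG132; luminescence from HSF1-driven luciferase expression after 8 hours of MG132 stress.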 The assay is classed as functional.

Assay [8] is described as follows: microbe, parasite or virus in culture. It is filed as functional. As to conditions: Mycobacterium tuberculosis.
Assay [9] in a line: cells. The assay is classed as functional, cell-based.
The nature of assay [10]: cells. It is filed as functional, cell-based. This is another data set of the same source.

Structures are written as SMILES. The source made the active and inactive calls. Some results are limits rather than exact numbers.

As a reminder, the EC50 is the midpoint of the concentration-response curve. `CCOC(=O)c1[nH]c(CSc2nnc(-c3ccc(OC)cc3)o2)c(C(=O)OCC)c1C`: the EC50 is 20.8 µM (active) in assay [1] and 21.6 µM (active) in [2].

One may read the IC50 as the midpoint of a concentration-inhibition curve. On to `CC1(C(=O)NS(=O)(=O)c2ccc(C#N)cc2)CCN1C(=O)c1ccc(C2CCCCC2)cc1` (configuration not stated), for which the IC50 at Fatty acid synthase was 5.24 µM (active).

Take `Cc1ccc(C)c(CSc2ncccc2C(=O)O)c1`: the half-inhibitory concentration (IC50) on Aminopeptidase N was 77.7 µM (active).

For `O=S(=O)(c1ccc2ccccc2c1)n1ccc2ccccc21`, the IC50 in [3] is > 100 µM (not active); in assay [4], > 100 µM (inactive).

For orientation: AC50 means the midpoint of the concentration-response curve, whichever way the signal moves. Regarding `CCOCCCNC1=C(Cl)C(=O)c2ccccc2C1=O`, the AC50 was 10.6 µM (active) in assay [5] and 12.3 µM (active) in [6].

With `CCOC(=O)c1[nH]cnc1C(=O)Nc1ccncc1`, at Aminopeptidase N, the IC50 is 26 µM (active).

Turning to `CS(=O)(=O)c1sc2nc(-c3cccs3)cc(-c3ccccc3)c2c1N`, the 50% inhibitory concentration (IC50) on Aminopeptidase N is 81.1 µM (active).

Take `O=C(c1ccc(-c2ccccc2)c(F)c1)C1CCCN(C(=O)c2cncs2)C1` (configuration not stated): the concentration giving a half-maximal response (EC50) in [7] is on record as > 195 µM (not active). Besides, in assay [8], the CC50 is 32.9 µM (active). In [5], the concentration at half-maximal activity (AC50) was 7.61 µM (active).

Take `CNC(=O)c1n[nH]c2c1COc1ccccc1-2`: the IC50 in [3] is > 100 µM (not active); in assay [4], > 100 µM (inactive).

On to `Cc1nn(-c2ccccc2)c2sc(C(=O)NNC(=O)COc3cccc4ccccc34)cc12`, for which the EC50 was 19.2 µM (active) in [1] and 19.3 µM (active) in assay [2].

On to `Cc1cc(N2C(=O)c3ccc(C(=O)NCc4ccccc4)cc3C2=O)no1`, for which, at Aminopeptidase N, the 50% inhibitory concentration (IC50) was 18.6 µM (active).

`NCc1cc(-c2cccnc2)no1`: the half-inhibitory concentration (IC50) was > 100 µM (not active) in assay [3] and > 100 µM (inactive) in [4].

In the case of `Cc1ccccc1N=C(S)NC(NC(=O)COc1ccccc1)C(Cl)(Cl)Cl` (configuration not stated), the results for the EC50 in assay [1] and in assay [2] were 27.2 µM (active) and 31 µM (active), respectively.

As for `O=C(Cn1ccnc1)c1ccc(O)c(O)c1`, the IC50 in assay [4] is > 100 µM (inactive).

Consider `c1cncc(-c2cc[nH]n2)c1`, for which the results for the half-maximal inhibitory concentration (IC50) in [3] and in assay [4] were > 100 µM (not active) and > 100 µM (inactive), respectively.

With `CSc1nc(C)cc(C)c1C#N`, the EC50 in “cells [9]” and in the assay “cells [10]” was > 350 µM (not active) in each case.

In the case of `C=CCN1C(=O)c2ccccc2Sc2ccc(C(=O)N3CCN(C)CC3)cc21`, the EC50 in the assay “cells [9]” and in the assay “cells [10]” was > 350 µM (not active) each time.

Turning to `CN(C)CCCN(C(=O)CCS(=O)(=O)c1ccccc1)c1nc2cc3c(cc2s1)OCO3`, the concentration for a half-maximal effect (EC50) in the assay “cells [9]” and in “cells [10]” was > 350 µM (not active) in each case.

`Cc1ccc(-c2c(C)sc3ncn(CC(=O)N4CCOCC4)c(=O)c23)cc1C`: the IC50 on Aminopeptidase N is 12.4 µM (active).

Turning to `COC(=O)Nc1ccc2c(c1)N(C(=O)CCN(C)C)c1ccccc1CC2`, the AC50 in assay [6] was > 20 µM (inactive).

Regarding `Cn1ncc(Br)c1NC(=O)CSc1ccc(Cl)cc1`, the concentration for a half-maximal effect (EC50) is > 350 µM (not active) in the assay “cells [9]” and 181 µM (active) in the assay “cells [10]”.

In the case of `Cc1ccc(-n2nnnc2SCC(=O)NC(C(=O)O)(c2ccccc2)c2ccccc2)cc1C`, the IC50 at Aminopeptidase N was 29.2 µM (active).

As to `Cc1cc(N2CCN(c3cccc(C)c3C)CC2)nc(-c2ccccc2)n1`, the AC50 in assay [5] was 1.66 µM (active).
